Key:
[1] = target: T1, β2AR (Homo sapiens, UniProt P07550); assay: 35S-GTPγS binding to heterotrimeric Gs (SPA), β2AR in HDL; details: epinephrine (10 µM) stimulation; cmpd-6 or A9 20 µM, Nb6B9 1 µM, ICI-118551 10 µM
Experimental: After incubations, the β2AR-Gs complexes were captured on YSi beads.

[2] = target: T1, β2AR; assay: 125I-CYP competition radioligand binding at β2AR in HDL particles (nanodiscs)

T1 sequence (P07550 whole entry): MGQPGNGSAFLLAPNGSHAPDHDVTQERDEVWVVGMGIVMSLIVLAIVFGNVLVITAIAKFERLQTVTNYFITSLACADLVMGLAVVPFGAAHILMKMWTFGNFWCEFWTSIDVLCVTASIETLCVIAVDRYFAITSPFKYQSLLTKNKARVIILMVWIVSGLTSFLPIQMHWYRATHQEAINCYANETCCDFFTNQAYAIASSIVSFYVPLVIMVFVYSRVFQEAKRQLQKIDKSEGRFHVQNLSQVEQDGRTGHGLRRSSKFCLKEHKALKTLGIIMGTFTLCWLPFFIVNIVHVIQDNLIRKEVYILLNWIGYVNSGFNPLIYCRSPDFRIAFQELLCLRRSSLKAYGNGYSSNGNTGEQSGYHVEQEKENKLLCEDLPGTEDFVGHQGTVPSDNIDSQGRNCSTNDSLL

Structure (SMILES): CC(C)N(C)S(=O)(=O)c1ccc(Sc2ccc(C(N)=O)cc2)c(C(=O)N[C@@H](CC(N)=O)Cc2ccc(C(C)(C)C)cc2)c1 [A9]
- 35S-GTPγS binding to Gs / activation of Gs [1]: markedly blocks the agonist-stimulated activation of Gs
- Kd ([2]; LogKT, dissociation constant of PAM, carvedilol-bound β2AR): 2950 nM
- PAM activity with agonists including epinephrine (affinity shift) ([2]; analog 20 µM, Fig. 5A(i), 5C): absolutely no PAM activity
- cooperativity with carvedilol (affinity shift) ([2]; analog 20 µM, Fig. 5A(ii)): retains its positive cooperativity with carvedilol
- Kd ([2]; binding affinity of modulator for the receptor in the presence of carvedilol, from shifts of carvedilol LogIC50 versus modulator dose): ~2900 nM
